Reference: patent publication US20050221475A1, “Cell culture procedures for inducing a neuronal phenotype in insect cells” (priority 2004, published 2005)

Tests used:
Sf21 cells [1] = test: Sf21 cell culture: morphology and count of cells displaying processes (transformants); assay type: cell-based, Spodoptera frugiperda
[2] = system: continuous cell lines of the Beet Armyworm, Spodoptera exigua; settings: cell proliferation assay; cited from earlier work
Sf21 cells [3] = assay type: cell-based, Spodoptera frugiperda
Drosophila Kc-H line = settings: cited from earlier work
[4] = system: Aedes aegypti established cell line; settings: 2 days exposure to 3×10^−7 M; cited from earlier work
[5] = system: acetylcholinesterase (ACHE); settings: 10^−6 M; cited from earlier work

In the case of “nerve growth factor: nerve growth factor (NGF)”, the “effect on cell morphology” value (Sf21 cells [1]; 20 μg/ml NGF, 48 hours after passage (FIG. 5)) is reported as “does not induce any similar morphological changes”.

For Cc1c(COC(=O)[C@@H]2[C@H](/C=C(\Cl)C(F)(F)F)C2(C)C)cccc1-c1ccccc1 (racemic) [bifenthrin], the “activity in undifferentiated cells” value [2] is listed as “low activity”.

In the case of NC1=N[C@H](O)[C@H]2[C@H]3O[C@]4(O)O[C@@H]([C@@H](O)[C@@]2(N1)[C@@H]4O)[C@]3(O)CO [TTX, tetrodotoxin], the “effect on veratridine-induced increase in transformants” value (Sf21 cells [3]) is reported as “blocked”.

For CC(C)(O)CC[C@@H](O)[C@](C)(O)[C@H]1CC[C@@]2(O)C3=CC(=O)[C@@H]4C[C@@H](O)[C@@H](O)C[C@]4(C)[C@H]3CC[C@]12C [20-hydroxyecdysone], the “increase in the number of cells showing one or more processes” value (Sf21 cells [1]; 20 μg/ml, counted 2 days after treatment, vs control, n=8) is listed as ~30 fold, the “effect on cell morphology” value (Sf21 cells [1]; TNM-FH medium supplemented with 10 μg/ml, 48 hours after passage (FIG. 2)) is listed as “numerous cells assume the appearance of monopolar neurons, with prominent axon-like structures” and the “concentration at which cells extend long processes and acquire acetylcholinesterase activity” value (Drosophila Kc-H line) is listed as “greater than or equal to 10^−8 molar”. For the same compound, the “stimulation of AChE activity” value [4] was 2 fold.

In the case of CNC(=O)Oc1ccc2c(c1)[C@]1(C)CCN(C)[C@@H]1N2C.CNC(=O)Oc1ccc2c(c1)[C@]1(C)CCN(C)[C@@H]1N2C.O=S(=O)(O)O [serine sulfate], the “effect on enzyme (AChE)” value [5] is listed as “blocked”.

For COc1ccc(C(=O)O[C@H]2CC[C@@]3(C)[C@@H]4CC[C@H]5[C@]6(O)C[C@H](O)[C@@]7(O)[C@@H](CN8C[C@@H](C)CC[C@H]8[C@@]7(C)O)[C@]6(O)C[C@@]53O[C@]24O)cc1OC [veratridine], the “increase in the number of transformants” value (Sf21 cells [3]) was ~3 fold.
